PubChem BioAssay (NCI)
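96-well plates; 48 h exposure; 5 concentrations. Endpoints by linear interpolation between flanking doses. Not reached: highest tested concentration assigned. At the GI50, growth is halved. TGI: total growth inhibition.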

Key:
Assay in all cases: NCI anticancer screen, dose series, 48 h
[1] = system: SR leukemia
[2] = system: MCF7 breast
[3] = system: U251 CNS
[4] = system: SF-295 CNS
[5] = system: HOP-92 NSCLC
[6] = system: IGROV1 ovarian
[7] = system: OVCAR-4 ovarian
[8] = system: HOP-62 NSCLC
[9] = system: KM12 colon
[10] = system: 786-0 renal
[11] = system: DU-145 prostate
[12] = system: HL-60(TB) leukemia
[13] = system: MDA-MB-231 breast
[14] = system: A498 renal
[15] = system: SK-MEL-5 melanoma
[16] = system: NCI-H460 lung
[17] = system: MOLT-4 leukemia
[18] = system: SF-268 CNS
[19] = system: UACC-257 melanoma
[20] = system: UO-31 renal
[21] = system: CCRF-CEM leukemia
[22] = system: M14 melanoma
[23] = system: NCI-H226 lung
[24] = system: LOX IMVI melanoma
[25] = system: COLO 205 colon
[26] = system: K-562 leukemia
[27] = system: CAKI-1 renal
[28] = system: A549 NSCLC
[29] = system: PC-3 prostate
[30] = system: SNB-75 CNS
[31] = system: OVCAR-5 ovarian
[32] = system: SK-MEL-2 melanoma
[33] = system: HCT-15 colon
[34] = system: RXF 393 renal
[35] = system: SK-OV-3 ovarian
[36] = system: SK-MEL-28 melanoma
[37] = system: NCI-H522 lung
[38] = system: OVCAR-3 ovarian
[39] = system: SF-539 CNS
[40] = system: MDA-MB-435
[41] = system: SNB-19 CNS
[42] = system: BT-549 breast
[43] = system: ACHN renal
[44] = system: OVCAR-8 ovarian
[45] = system: RPMI-8226 leukemia
[46] = system: SW-620 colon
[47] = system: T-47D breast
[48] = system: NCI/ADR-RES ovarian
[49] = system: NCI-H23 lung
[50] = system: TK-10 renal
[51] = system: HCC-2998 colon
[52] = system: SN12C renal
[53] = system: MALME-3M melanoma
[54] = system: HS 578T breast
[55] = system: HT29 colon
[56] = system: HCT-116 colon

Cn1c([N+](=O)[O-])cnc1/C=C1\Oc2cc(Cl)ccc2C1=O
GI50 [1]: 39.3 nM
TGI [1]: 344 nM
GI50 [2]: 712 nM
TGI [2]: 13300 nM
GI50 [3]: 1530 nM
TGI [3]: 5070 nM
GI50 [4]: 2720 nM
TGI [4]: > 42700 nM
GI50 [5]: 1320 nM
TGI [5]: 5140 nM
GI50 [6]: 783 nM
TGI [6]: > 20200 nM
GI50 [7]: 2480 nM
TGI [7]: > 21500 nM
GI50 [8]: 1880 nM
TGI [8]: 6070 nM
GI50 [9]: 501 nM
TGI [9]: 6780 nM
GI50 [10]: 1080 nM
TGI [10]: 4750 nM
GI50 [11]: 413 nM
TGI [11]: 4510 nM
GI50 [12]: 421 nM
TGI [12]: 5040 nM
GI50 [13]: 940 nM
TGI [13]: > 28500 nM
GI50 [14]: 1950 nM
TGI [14]: 9970 nM
GI50 [15]: 289 nM
TGI [15]: 1220 nM
GI50 [16]: 297 nM
TGI [16]: 3400 nM
GI50 [17]: 212 nM
TGI [17]: 2320 nM
GI50 [18]: 371 nM
TGI [18]: 2850 nM
GI50 [19]: 997 nM
TGI [19]: 4990 nM
GI50 [20]: 250 nM
TGI [20]: 1300 nM
GI50 [21]: 148 nM
TGI [21]: 754 nM
GI50 [22]: 499 nM
TGI [22]: 4610 nM
GI50 [23]: 2050 nM
TGI [23]: 8410 nM
GI50 [24]: 200 nM
TGI [24]: 553 nM
GI50 [25]: 742 nM
TGI [25]: 3590 nM
GI50 [26]: 1360 nM
TGI [26]: 21000 nM
GI50 [27]: 296 nM
TGI [27]: 1180 nM
GI50 [28]: 1700 nM
TGI [28]: 7060 nM
GI50 [29]: 1360 nM
TGI [29]: > 24100 nM
GI50 [30]: 1800 nM
TGI [30]: 9380 nM
GI50 [31]: 2470 nM
TGI [31]: 7840 nM
GI50 [32]: 436 nM
TGI [32]: 2000 nM
GI50 [33]: 267 nM
TGI [33]: 1050 nM
GI50 [34]: 762 nM
TGI [34]: 2370 nM
GI50 [35]: 1940 nM
TGI [35]: > 22800 nM
GI50 [36]: 721 nM
TGI [36]: 3820 nM
GI50 [37]: 679 nM
TGI [37]: 2360 nM
GI50 [38]: 441 nM
TGI [38]: 2310 nM
GI50 [39]: 1710 nM
TGI [39]: 4810 nM
GI50 [40]: 260 nM
TGI [40]: 1050 nM
GI50 [41]: 1640 nM
TGI [41]: 6210 nM
GI50 [42]: 996 nM
TGI [42]: 4900 nM
GI50 [43]: 209 nM
GI50 [44]: 401 nM
TGI [44]: > 100000 nM
GI50 [45]: 1730 nM
TGI [45]: > 20500 nM
GI50 [46]: 159 nM
TGI [46]: 1060 nM
GI50 [47]: 21500 nM
TGI [47]: > 100000 nM
GI50 [48]: 884 nM
TGI [48]: > 100000 nM
GI50 [49]: 766 nM
TGI [49]: 4470 nM
GI50 [50]: 1330 nM
TGI [50]: 4810 nM
GI50 [51]: 2040 nM
TGI [51]: 4810 nM
GI50 [52]: 713 nM
TGI [52]: 6650 nM
GI50 [53]: 837 nM
TGI [53]: 4130 nM
GI50 [54]: 1690 nM
TGI [54]: > 24400 nM
GI50 [55]: 203 nM
TGI [55]: 657 nM
GI50 [56]: 201 nM
TGI [56]: 806 nM
